Measured values taken from patent US4837342A, “Prostacyclin analogue, and blood circulation improving agent and anti-ulcer composition containing it as active ingredient” (Sagami Chemical Research Center, priority 1986, dated 1989).
Where two headings read alike, the source gives them in different places.

How the values were obtained:
[1] = system: Blood platelet (ADP agglutination); assay: Blood platelet agglutination inhibiting activity (ADP-induced), washed rabbit platelet suspension; type: cell-based, rabbit (Japanese white male rabbits); conditions: for IC50: Oryctolagus cuniculus, Platelet, ADP 10 μM, concentration suppressing agglutination to 50%, read-out: Platelet agglutination inhibiting activity ED50, ADP agglutination; for Activity ratio, platelet agglutination inhibiting activity, ADP agglutination: relative to prostacyclin = 1
Method: (§1) Blood platelet aggutination inhibiting activity
(§2) Japanese white male rabbits having a weight of from 2.0 to 2.5 kg were used.
(§3) Under anesthesia with sodium Pentobarbital, blood was sampled from the carotid artery, and mixed with a 1/7 volume of an anticoagulant citric acid dextrose solution. Then, the mixture was subjected to centrifugal separation at 140×g for 15 minutes, whereupon the supernatant (platelet rich plasma:PRP) was obtained. PRP was subjected to centrifugal separation at 1,300×g for 7 minutes. The blood platelet pellets thus obtained were washed with a HEPES buffer solution (pH 6.5) for washing blood platelets, and subjected to centrifugal separation at 1,300×g for 7 minutes. The blood platelet pellets washed twice under such condition, were suspended in a suspending liquid (a buffer solution for washing blood platelets, which contains 0.1% of human fibrinogen, 1.8 mM of CaCl2 and 1.2 mM of MgCl2) to obtain a blood platelet suspension having a concentration of from 5×10^8 to 8×10^8 platelets/ml.
(§4) The platelet agglutination ability was measured by means of an agglutination meter. To 380 μl of the platelet suspension, 10 μl of a test compound or a solvent as the control, was added. Three minutes later, 10 μl of a platelet agglutinating substance (10 μM of ADP or 1 μg/ml of collagen, as the final concentration) was added thereto to induce agglutination.
(§5) The blood platelet agglutination inhibiting activity of each test compound was represented by ED50 (i.e. the concentration of the test compound where the platelet agglutination is suppressed to 50%).

[2] = system: Blood platelet (Collagen agglutination); assay: Blood platelet agglutination inhibiting activity (collagen-induced), washed rabbit platelet suspension; type: cell-based, rabbit (Japanese white male rabbits); conditions: for IC50: Oryctolagus cuniculus, Platelet, collagen 1 μg/ml, concentration suppressing agglutination to 50%, read-out: Platelet agglutination inhibiting activity ED50, Collagen agglutination; for Activity ratio, platelet agglutination inhibiting activity, Collagen agglutination: relative to prostacyclin = 1
Method: as §1, §2, §3, §4, §5

[3] = system: coronary artery; assay: Blood flow-increasing activity in the coronary artery, anesthetized dog; type: in vivo, crossbred adult dog; conditions: for ED50: Canis lupus familiaris, reactive hyperemia = 100%; for ED50 / Blood flow increase in coronary artery: dog, near arterial injection; for Activity ratio, blood flow-increasing activity in coronary artery: relative to prostacyclin = 1; for Blood flow increase in coronary artery: at 3 μg/kg
Method: Blood flow-increasing activity in the coronary artery
A crossbred adult dog having a weight of from 9 to 15 kg was anesthetized with sodium Pentobarbital and subjected to thoractomy under artificial respiration. After pericardiectomy, the frontal descending branch of the left coronary artery was separated from the surrounding tissues, and a blood flow-measuring probe was attached thereto under sodium heparin treatment. The coronary blood flow was measured by using an electromagnetic flow meter. The test compound was injected into the coronary artery by near arterial injection, and the blood flow-increasing activity in the coronay artery was represented by ED50 (i.e. the dose of a test compound at which the blood flow increases by 50%, as evaluated on the basis that the blood flow increase by the reactive hyperemia caused by releasing the blood flow of the coronary artery after blocking it for 15 seconds, is evaluated to be 100%).

[4] = system: vertebral artery; assay: Blood flow-increasing activity in the vertebral artery, anesthetized dog; type: in vivo, crossbred adult dog; conditions: for ED50: Canis lupus familiaris, papaverine hydrochloride 100 μg/kg = 100%; for Activity ratio, blood flow-increasing activity in vertebral artery: relative to prostacyclin = 1
Excerpt: Blood flow-increasing activity in the vertebral artery
A made or female crossbred adult dog having a weight of from 8 to 13 kg was anesthetized by intravenous administration of sodium Pentobarbital and subjected to thoractomy along the mediam line under artificial respiration to expose the left vertebral artery. Under sodium peparin treatment, a polyethylene cannula was inserted into the vertebral artery, and a blood flow-measuring probe was attached to its other end, to which a blood circulation tube led from the left femoral artery was connected, whereby the blood flow in the vertebral artery was measured by using an electromagnetic flow meter. The test compound was injected into the vertebral artery by near arterial injection, and the blood flow-increasingactivity in the vertebral artery was represented by ED50 (i.e. the dose of a test compound at which the blood flow increases by 50%, as evaluated on the basis that the blood flow increase (representing substantially the maximum reaction) by the administration of 100 μg/kg papaverine hydrochloride into the vertebral artery, is evaluated to be 100%).

[5] = system: femoral artery; assay: Blood flow-increasing activity in the femoral artery, anesthetized dog; type: in vivo, crossbred adult dog; conditions: for ED50: Canis lupus familiaris, papaverine hydrochloride 100 μg/kg = 100%; for Activity ratio, blood flow-increasing activity in femoral artery: relative to prostacyclin = 1
Method: Blood flow-increasing activity in the femoral artery
A male or female crossbred adult dog having a weight of from 8 to 13 kg, was anesthetized by intravenous administration of sodium Pentobarbital. Then, a tracheal cannula was inserted, and artificial respiration was conducted. The blood flow in the femoral artery was measured by inserting the annula into the left femoral artery under sodium heparin treatment and providing a blood flow measuring probe at it other end, and by using an electromagnetic flow meter. The test compound was injected into the femoral artery by near arterial injection, and the blood flow-increasing activity in the femoral artery was represented by ED50 (i.e. the dose of a test compound at which the blood flow increases by 50%, as evaluated on the bais that the blood flow increase (representing substantially the maximum reaction) by the administration of 100 μg/kg of papaveline hydrochloride into the femoral artery, is evaluted to be 100%).

[6] = system: diastolic blood pressure; assay: Hypotensive activity, anesthetized dog; type: in vivo, crossbred adult dog; conditions: for Activity ratio, hypotensive activity: relative to prostacyclin = 1; for ED (50 mmHg): Canis lupus familiaris, iv
Method: A male or female crossbred adult dog having a weight of from 9 to 14 kg was anesthetized by intraveous administration of sodium Pentobarbital. Then, the left carotid was exposed under artificial respiration, and the blood pressure was measured by using an electric blood pressure meter. […]

[7] = system: Ethanol ulcer; assay: Ethanol ulcer inhibiting activity; type: in vivo, Male wister rats; conditions: rat; for ED50: po, P.O., 30 minutes before 99.5% ethanol; for Ethanol ulcer inhibition: oral administration of 30 μg/kg
Method: Ethanol ulcer inhibiting activity
Male wister rats having a weight of from 170 to 270 g were put into individual cages and starved for 24 hours. During this starvation period, the rats were allowed to drink water freely. A test compound or PGE2 as a comparative compound was orally administered in an amount of 3, 10 or 30 μg/kg, and 30 minutes later, 1 ml of 99.5% ethanol was orally administered to each rat. One hour after the ethanol administration, each rat was filled by cervical vertebral luxation, and the stomach was taken out. A 1% formaline solution was injected into the stomach in an amount of about 8 ml, and the stomach was fixed in the formaline solution for 30 minutes. After the fixing, the stomach was severed along the greater curvature, and the mucous membrane surface of the stomach was gently washed with flowing water. Then, the total length of damages appearing on the gastric glandular portion was obtained and used as the ulcer index.
The ethanol ulcer inhibiting activity of a test compound was represented by ED50 (i.e. the dose of the test compound at which the ulcer was inhibited by 50% relative to the ulcer index of the non-treated group). To the non-treated group, the solvent was administered.

[8] = system: Hydrochloric acid ulcer; assay: Hydrochloric acid ulcer inhibiting activity; type: in vivo, wister rats; conditions: rat; oral administration of 30 μg/kg; 0.6N hydrochloric acid; read-out: Hydrochloric acid ulcer inhibiting activity, Inhibiting rate
Method: Hydrochloric acid ulcer inhibiting activity
Male wister […] having a weight of from 190 to 240 g were used. The rats were starved in the same manner as in Test Example 6, and the test compounds and PGE2 were, respectively, orally administered in an amount of 30 μg/kg, and 30 minutes later, 1 ml of 0.6N hydrochloric acid was orally administered. Thirty minutes after the hydrochloric acid administration, each rat was killed by cervical vertebral luxation. Then, the stomach was taken out and fixed, and the ulcer index was obtained, in the same manner as in Test Example 6. The hydrochloric acid ulcer inhibiting activity of a test compound was represented by the inhibiting percentage (i.e. the percentage of the ulcer index of the treated group to the ulcer index of the non-treated group). To the non-treated group, the solvent was administered.

[9] = system: Indomethacine ulcer; assay: Indomethacine ulcer inhibiting activity; type: in vivo, Male wister rats; conditions: rat
Excerpt: Indomethacine ulcer inhibiting activity
Male wister rats having a weight of from 210 to 270 g were used. The rats were starved in the same manner as in Test Example 6. […] Three hours after the indomethacine administration, the test compound or PGE2 was again orally administered in the same amount. Six hours after the first administration of indomethacine, each rat was killed by cervical bertebral luxation. The stomach was taken out and fixed, and the ulcer index was obtained, in the same manner as in Test Example 6.
The indomethacine ulcer inhibiting activity of a test compound was represented by the inhibiting percentage (i.e. the inhibiting percentage of the ulcer index of the treated group to the ulcer index of the non-treated group). To the non-treated group, the solvent was administered.

[10] = oral administration of 60 μg/kg twice
[11] = dog, at 3 μg/kg, near arterial injection

Structure (SMILES)	IC50 [1]	IC50 [2]	Activity ratio, platelet agglutination inhibiting activity, Collagen agglutination [2]	ED50 [3]	Activity ratio, blood flow-increasing activity in coronary artery [3]	ED50 ([4]; dog, near arterial injection)	Activity ratio, blood flow-increasing activity in vertebral artery [4]	ED50 ([5]; dog, near arterial injection)	Activity ratio, blood flow-increasing activity in femoral artery [5]	Hypotensive activity, blood pressure decrease ([6]; dog, at 10 μg/kg i.v.)	Activity ratio, hypotensive activity [6]	ED50 [7]	inhibition in vivo at 0.03 mg/kg [8]	Activity ratio, platelet agglutination inhibiting activity, ADP agglutination [1]	Blood flow increase in coronary artery [3]	Ethanol ulcer inhibition [7]	Indomethacine ulcer inhibition (in words) [9, 10]	also measured
CCC#CCC(C)[C@H](O)/C=C/[C@@H]1[C@H]2CC=C(CCCCC(=O)O)C[C@H]2C[C@H]1O (stereo partly shown) [(i)]	0.022 µM	0.024 µM	1/7	3.6 µg/kg	1/360	0.8 µg/kg	1/18	0.56 µg/kg	1/23	24.5 mmHg	1/152	5.89 µg/kg	17.4%	–	–	–	–	Hypotensive activity, blood pressure decrease ([6]; at 60 μg/kg i.v. (so in the source), Table 2): 24.5 mmHg; Indomethacine ulcer inhibiting activity, Inhibiting rate ([9]; oral administration of 10 μg/kg twice (so in the source)): 49.5%
CCCCC[C@H](O)/C=C/[C@@H]1[C@H]2CCC(CCCC(=O)O)=C[C@H]2C[C@H]1O [(a), 3-(3-carboxypropyl)-7-exo-(3α-hydroxy-trans-1-octenyl)-8-endo-hydroxy-cis-bicyclo[4,3,0]nona-2-ene]	1.3 µM	0.97 µM	1/285	–	About 1/500	0.44 µg/kg	1/10	0.19 µg/kg	1/8	20 mmHg	1/192	–	15.3%	1/455	37.6%	20.0%	Certain inhibition	–
CCCCC[C@H](O)/C=C/[C@H]1[C@H](O)CC(=O)[C@@H]1C/C=C\CCCC(=O)O [PGE2, reference compound]	–	–	–	–	–	–	–	–	–	–	–	9.03 µg/kg	61.6%	–	–	–	–	Indomethacine ulcer inhibiting activity, Inhibiting rate ([9]; oral administration 30 μg/kg twice): 98.3%
CCC#CCC(C)[C@H](O)/C=C/[C@@H]1[C@H]2CCC(CCOCC(=O)O)=C[C@H]2C[C@H]1O (stereo partly drawn) [(g), 3(3-oxa-4-carboxybutyl)-7-exo-(3α-hydroxy-4,8-dimethyl-1-trans-octen-6-ynyl)-8-endo-hydroxy-cis-bicyclo[4,3,0]nona-2-ene]	0.038 µM	–	–	0.55 µg/kg	1/55	2 µg/kg	1/45	0.72 µg/kg	1/30	–	1/67	5.38 µg/kg	42.1%	1/13	–	–	–	ED (50 mmHg) ([6]; Table 2, read-out: Hypotensive activity ED50 mmHg): 16.1 µg/kg; ED (50 mmHg) ([6]; dog, femoral vein, Table 1, read-out: Hypotensive activity ED50 (dose reducing diastolic blood pressure by 50 mmHg)): 16 µg/kg; Indomethacine ulcer inhibiting activity, Inhibiting rate [9, 10]: 57.3%
CCC#CCC(C)[C@H](O)/C=C/[C@@H]1[C@H]2CCC(COCCC(=O)O)=C[C@H]2C[C@H]1O (stereo partly shown) [(h)]	> 3 µM	–	–	–	–	–	–	–	–	15 mmHg	–	–	21.3%	–	25%	32.5%	Certain inhibition	Blood flow increase in vertebral artery [4, 11]: 28.5%; Blood flow increase in femoral artery [5, 11]: 31.7%
